# Assay results published in patent US20060051374A1, “Compositions and methods for mucosal vaccination” (3M Innovative Properties Company, priority 2004, published 2006).
# Test system: OT-I cells
# Test: Total OT-I cell numbers in lymphoid tissues and percentage in nasal mucosa at Day 7 (Example 1)
# Type: in vivo, C57BL/6 mice
# Procedure: An Ovalbumin-IRM1 conjugate was prepared as follows. IRM1 was suspended in dimethyl sulfoxide (DMSO) to 10 mg/ml. Ovalbumin was suspended in phosphate buffered saline (PBS) to 10 mg/ml and the pH adjusted to >10.0 by the addition of NaOH. 500 μL of the ovalbumin solution (5 mg ovalbumin) was mixed with 100 μL of the IRM1 solution (1 mg IRM1) in a single well of a 12-well tissue culture plate. The plate was placed on ice and a long wavelength UV light source was placed directly over the plate as close to the well containing the IRM1/ovalbumin mixture as possible. The mixture was irradiated for 15 minutes. […]
# Chicken Ovalbumin-specific CD8^+ T cells (OT-I, The Jackson Laboratories, Bar Harbor, Me.) were labeled with carboxyfluoroscein succinimidyl ester (CFSE, Molecular Probes, Inc., Eugene, Oreg.), a fluorescent dye that stains cells in a stabile manner, and then adoptively transferred into syngenic C57BL/6 mice (Charles River Laboratories, Wilmington, Mass.). […] Cells were then run on a FACSCaliber (Becton, Dickinson, and Co., San Jose, Calif.) and CD8^+SIINFEKL/K^b tetramer^+ T cells were analyzed for CFSE expression.
# Separately, total OT-I cell numbers at Day 7 were counted in nasal associated lymphoid tissue (NALT), cervical lymph node (CLN), and spleen (Spl). […] Additionally, the percentage of OT-I cells in the nasal mucosa at determined at Day 7. […]
smiles,measurement,setting,value
"CCOCc1nc2c(N)nc3ccccc3c2n1CC(C)(C)NC(=O)CCCCCNC(=O)c1ccc(N=[N+]=[N-])cc1O [IRM1, N-[6-({2-[4-amino-2-(ethoxymethyl)-1H-imidazo[4,5-c]quinolin-1-yl]-1,1-dimethylethyl}amino)-6-oxohexyl]-4-azido-2-hydroxybenzamide]","total OT-I cell numbers, intranasal IRM1 plus antigen versus antigen alone","Ovalbumin-IRM1 conjugate intranasal, FIG. 2",greater total OT-I cell numbers at Day 7 than antigen alone
same,"total OT-I cell numbers, intranasal versus intravenous delivery","Ovalbumin-IRM1 conjugate, NALT, CLN, spleen, FIG. 2A-2C",greater total OT-I cell numbers at Day 7 than intravenous delivery in all lymphoid tissues examined
